Experiments:
KP^f/fC cells = assay: pancreatic tumorsphere formation assay; assay type: cell-based, mouse; details: SR2211 vs vehicle
Description: (§1) Pancreatic tumorsphere formation assays were performed and modified from (Rovira et al., 2010). Briefly, low-passage (<6 passages) WT or REM2-KP^f/fC cell lines were infected with lentiviral particles containing shRNAs; positively infected (red) cells were sorted 72 hours after transduction. 100-300 infected cells were suspended in tumorsphere media: 100 μl DMEM F-12 (Gibco, Life Technologies) containing 1× B-27 supplement (Gibco, Life Technologies), 3% FBS, 100 μM B-mercaptoethanol (Gibco, Life Technologies), 1× non-essential amino acids (Gibco, Life Technologies), 1× N2 supplement (Gibco, Life Technologies), 20 ng/ml EGF (Gibco, Life Technologies), 20 ng/ml bFGF2 (Gibco, Life Technologies), and 10 ng/ml ESGRO mLIF (Thermo Fisher). Cells in media were plated in 96-well ultra-low adhesion culture plates (Costar) and incubated at 37° C. for 7 days. KP^f/fC in vitro tumorsphere formation studies were conducted at a minimum of n=3 independent wells per cell line across two independent shRNA of n=3 wells; however, the majority of these experiments were additionally completed in >1 independently-derived cell lines n=3, at n=3 wells per shRNA.

pancreatic cancer cell = assay: in vitro sphere formation, antagonists of Table 2; assay type: cell-based, mouse; details: extent of growth suppression relative to control
Description: as §1

[1] = tested on: primary patient-derived organoids; assay: primary patient-derived organoids, SR2211; assay type: cell-based, human; details: following SR2211 treatment
Description: Primary patient organoids were established and provided by Dr. Andrew Lowy. Briefly, patient-derived xenografts were digested for 1 hour at 37° C. in RPMI containing 2.5% FBS, 5 mg/ml Collagenase II, and 1.25 mg/ml Dispase II, then passaged through a […] mesh filter. Cells were plated at a density of 1.5×10^5 cells per 50 μl Matrigel. After domes were solidified, growth medium was added as follows: RPMI containing 50% Wnt3a conditioned media, 10% R-Spondinl-conditioned media, 2.5% FBS, 50 ng/ml EGF, 5 mg/ml Insulin, 12.5 ng/ml hydrocortisone, and 14 μM Rho Kinase Inhibitor. After establishment, organoids were passaged and maintained as previously described (Boj et al., 2015). Briefly, organoids were isolated using Cell Recovery Solution (Corning 354253), then dissociated into single cell suspensions with TrypLE Express (ThermoFisher 12604) supplemented with 25 μg/ml DNase I (Roche) and 14 μM Rho Kinase Inhibitor (Y-27632, Sigma). Cells were split 1:2 into 20 μl domes plated on pre-warmed 48 well plates. Domes were incubated at 37° C. for 5 min, then covered with human complete organoid feeding media (Boj et al., 2015) without Wnt3a-conditioned media. […] Organoids were grown in the presence of vehicle or SR2211 for 7 days, then imaged and quantified, n=3 independent wells plated per dose per treatment group. […] Organoids were counted and measured using ImageJ 1.51s software.

[2] = tested on: primary murine PanIN derived organoids; assay: PanIN derived organoids; assay type: cell-based
Description: Moreover, RORγ inhibitor SR2211 can block the growth of benign pancreatic intraepithelial neoplasia (PanIN) lesions. The effect of SR2211 was tested on dissociated primary murine PanIN derived organoids.

[3] = tested on: PDX1424, PDX1444, and FG cells; assay: compilation of PDX or FG xenografts, AZD-0284; assay type: in vivo, human
Text: (§2) FIG. 45 is a compilation of all data from mice bearing PDX or FG cancer xenographs, including PDX1424, PDX1444, and FG.

Fast Growing (FG) cells = assay: Fast Growing (FG) cell xenografts in mice; assay type: in vivo, human
Text: as §2

[4] = tested on: primary patient-derived xenografts; assay: compilation of primary patient-derived xenografts, JTE-151; assay type: in vivo, human; details: JTE-151 vs vehicle, compilation (FIG. 78)
Text: (§3) Finally, the impact of JTE-151 was examined in vivo on mice bearing primary patient-derived pancreatic cancer xenografts (FIGS. 70-78). […] FIGS. 70-72 show 3 rounds of treatment in an experiment using mice bearing PDX1356 xenographs. The horizontal axis of the first panel in each of FIGS. 70-72 represents days of treatment, and the vertical axis represents tumor volume. The horizontal axis of each of the remaining panels represents the target (vehicle vs. JTE-151 mouse), and the vertical axis represents the specified measurement. JTE-151 was given at the regimen as specified in the figures. For example, in the first round (FIG. 70), JTE-151 was given at 90 mg/kg body weight once per day for the first 25 days, then twice per day from day 26 though day 40.
(§4) Two other primary patient-derived xenografts, PDX1535 (FIGS. 74 and 75) and PDX1424 (FIGS. 76 and 77), were tested using JTE-151 at 90 mg/kg once per day. […] Considering the reduced tumor mass and cell numbers, the absence of a significant change in tumor volume may be due to necrotic cells that remained for a while post drug treatment.

[5] = tested on: human pancreatic cancer Fast Growing (FG) cells; assay: FG organoid assay; assay type: cell-based
Description: Similarly, the effects of JTE-151 at different doses were examined on human pancreatic cancer Fast Growing (FG) cells using the organoid assay (FIG. 69). Three doses of JTE-151 were tested: 0.3 μM, 1 μM, and 3 μM.

PDX1535 xenograft = assay: PDX1535 xenografts in mice; assay type: in vivo, human; details: JTE-151 90 mg/kg once per day
Text: as §3, §4

[6] = compilation of all data (FIG. 45)
[7] = especially at 90 mg/kg AZD-0284 (FIG. 44)
[8] = AZD-0284 in combination with gemcitabine

## OC(c1ccc(-c2ccc(CN3CCN(Cc4ccncc4)CC3)cc2)c(F)c1)(C(F)(F)F)C(F)(F)F [SR2211]
KP^f/fC cells
  sphere formation: decreased
Pancreatic cancer cell
  in vitro sphere formation: ✓✓✓✓ (dose response observed; growth suppressed by 8-fold or more relative to control)
[1]
  reduction in total organoid volume: ~300 fold
[2]
  organoid number: reduced
  organoid volume: reduced

## CC(=O)N1Cc2cc(S(C)(=O)=O)ccc2[C@@H]1C(=O)Nc1ccc(C(O)(C(F)(F)F)C(F)(F)F)cc1 [AZD-0284]
[3]; [6]
  EpCam+ tumor epithelial cells: decrease
  EpCam+/CD133+ tumor stem cells: decrease
  cell number: decrease
[3]; [7]
  EpCam+ tumor epithelial cells: reduced
  EpCam+/CD133+ tumor stem cells: reduced
Fast Growing (FG) cells; 90 mg/kg AZD-0284
  EpCam+/CD133+ tumor stem cells: decrease
  total cell number: decrease
Fast Growing (FG) cells; [8]
  EpCam+/CD133+ tumor stem cells: decrease
  total cell number: decrease

## Cc1ccc(NC(=O)C[C@H](CCC(=O)O)c2noc([C@H]3C[C@@H](CC(C)(C)C)C3)c2C2CC2)c(Cl)c1 [JTE-151, (4S)-6-[(2-chloro-4-methylphenyl)amino]-4-{4-cyclopropyl-5-[cis-3-(2,2-dimethylpropyl)cyclobutyl]isoxazol-3-yl}-6-oxohexanoic acid]
[4]
  EpCam+ tumor epithelial cells: significantly reduced
  EpCam+/CD133+ tumor stem cells: significantly reduced
  cell number: significantly reduced
  tumor mass: significantly reduced
[5]; JTE-151 (0.3 μM, 1 μM, 3 μM) in combination with 0.05 nM gemcitabine
  FG organoid growth: significant inhibition
[5]; JTE-151 alone at 0.3 μM, 1 μM, and 3 μM
  FG organoid growth: significant inhibition
PDX1535 xenograft
  EpCam+ tumor epithelial cells: trend of decreased
  EpCam+/CD133+ tumor stem cells: trend of decreased
  total cell counts: trend of decreased
  tumor mass: trend of decreased
  tumor volume or growth rate: did not exhibit any significant difference

Source: US20220202811A1, “TREATMENT FOR RETINOIC ACID RECEPTOR-RELATED ORPHAN RECEPTOR Ɣ (RORƔ)-DEPENDENT CANCERS” (The Regents of the University of California, priority 2019, published 2022)
